Tests used:
[1] = test system: MDA-MB-435 breast cancer cell line; assay: Cytotoxicity MTT assay, MDA-MB-435; assay type: cell-based, human; conditions: Homo sapiens; 20 μM, MDA-MB-435, 72 h MTT; read-out: % inhibition of cell growth at 20 μM, 435
Excerpt: (§1) Cell Culture. Human breast cancer cells (MCF-7, αvβ3—, overexpressed wild-type p53, ER+; MDA-MB 468, p53 mutant, ER+; and MDA-MB-435, αvβ3+, p53 mutant, ER−) and non-small cell lung cancer cells H1975 were obtained from the American Type Cell Culture (Rockville, Md. Q4). The HEY human ovarian carcinoma cell line naturally resistant to cisplatin (CDDP) was kindly provided by Dr. Dubeau (University of Southern California Norris Cancer Center). Cells were maintained as monolayer cultures in RPMI 1640 supplemented with 10% fetal bovine serum (Gemini-Bioproducts, Woodland, Calif.) and 2 mmol/L L-glutamine at 37° C. in a humidified atmosphere of 5% CO2. To remove the adherent cells from the flask for passaging and counting, cells were washed with PBS without calcium or magnesium, incubated with a small volume of 0.25% trypsin-EDTA solution (Sigma, St. Louis, Mo.) for 5 to 10 minutes, and washed with culture medium and centrifuged. All experiments were done using cells in exponential cell growth.
(§2) Cytotoxicity Assay. Cytotoxicity was assessed by 3-(4,5-dimethylthiazol-2-yl)-2,5-diphenyltetrazolium bromide (MTT) assay as previously described.^41, 54 Briefly, cells were seeded in 96-well microtiter plates and allowed to attach. Cells were subsequently treated with a continuous exposure to the corresponding drug for 72 hours. An MTT solution (at a final concentration of 0.5 mg/mL) was added to each well and cells were incubated for 4 hours at 37° C. After removal of the medium, DMSO was added and the absorbance was read at 570 nm. All assays were done in triplicate. The IC50 was then determined for each drug from a plot of log (drug concentration) versus percentage of cell kill.
(§3) Cytotoxicity of Selected Compounds in a Panel of Cancer Cell lines. Initially, we tested all compounds in two breast cancer cell lines MDA-MB-435 and MCF7 with high and low αvβ3 expression as well as in HEY ovarian cancer cell line naturally resistant to cisplatin. […] We observed a remarkable specificity for some of the compounds against these cells. […] Considering the fact that αvβ3 mediates migration, attachment and apoptosis of cancer cells, the combination of these novel high affinity antagonists with conventional cytotoxic drugs should show improved therapeutic benefits without additional toxicity.
(§4) NVX-188 was tested for cytotoxicity by MTT assays in two breast cancer cell lines, MDA-MB-435 with high αvβ3 integrin expression and MCF7 with low αvβ3 integrin expression, and an ovarian cancer cell line, HEY, which was used to test for cell growth inhibition evidence. NVX-188 was further evaluated in a lung cancer cell line, NCI-H1975, and a mouse fibroblast, NIH3T3. NVX-188 was not cytotoxic at the highest dose level tested (20 uM).

[2] = test system: MCF7 breast cancer cell line; assay: Cytotoxicity MTT assay, MCF7; assay type: cell-based, human; conditions: Homo sapiens; 20 μM, MCF7, 72 h MTT; read-out: % inhibition of cell growth at 20 μM, MCF7
Excerpt: as §1, §2, §3, §4

[3] = test system: HEY ovarian cancer cell line; assay: Cytotoxicity MTT assay, HEY; assay type: cell-based, human; conditions: Homo sapiens; 20 μM, HEY, 72 h MTT; read-out: % inhibition of cell growth at 20 μM, HEY
Excerpt: as §1, §2, §3, §4

αvβ3 integrin = target: T1, αvβ3 integrin (Homo sapiens, UniProt P05106+P06756); assay: Receptor binding assay, competitive binding with 125I-labeled echistatin on the surface of NCI-H1975 cells; conditions: 125I-echistatin competition, NCI-H1975 cells; read-out: αvβ3 binding affinity (IC50)
T1 construct: endogenous in cells; host or cells: NCI-H1975 cells (non-small cell lung cancer), whole cells in suspension
Method: Receptor Binding Assay. […] 96-Well multiscreen DV plate (filter pore size: 0.65 μm, Millipore, Billerica, Mass.) was incubated with ^125I-echistatin (50,000 cpm/well) in the presence of increasing concentrations of αvβ3 antagonists. The total incubation volume was adjusted to 200 μL. After the cells were incubated for 3 h at room temperature, the plate was filtered through multiscreen vacuum manifold and washed twice with cold binding buffer. The hydrophilic PVDF filters were collected, and the radioactivity was determined using NaI(Tl) gamma counter (Packard, Meriden, Conn.). The best-fit IC50 values were calculated by fitting the data by nonlinear regression using GraphPad Prism (GraphPad Software, Inc., San Diego, Calif.). Experiments were carried out with triplicate samples.
αvβ3 Binding. Receptor binding affinity of all compounds on the surface of non-small cell lung cancer NCI-H1975 cells was determined in competitive binding experiments using ^125I-labeled echistatin as radioligand and the results are presented in Table 3. […] These compounds represent a novel set of antagonists with diverse structural scaffolds. […] This is an important feature considering the highly electrostatic nature of the RGD peptide binding region of αvβ3. The RGD peptide forms strong electrostatic interactions through its two charged ends with αvβ3 in the αvβ3-cyclic RGD peptide complex crystal structure. Compounds AV3, AV27, and AV32 broadly fall into a RGD mimetic antagonist category, since they have a carboxylate group or amine/amide group, at either ends that can establish similar electrostatic interactions with αvβ3. Additionally, presence of several hydrophilic functional groups on these compounds favors their interaction with the highly electrostatic region of the RGD binding site of αvβ3. Given these interesting structural features, we tested additional structurally close analogues of AV27 and AV32. However, substructure search queries using the core scaffolds of these compounds in our in-house databases yield no close analogues. Structure-activity studies around the core scaffolds of these two compounds might be an alternative option to further optimize their binding affinity towards αvβ3. […] We carried out a limited structure-activity relationship (SAR) analysis on compound AV26 by testing compounds AV34-AV38 in our binding assay (Table 3). The substructure search using the core scaffold of AV26 as a search query retrieved few compounds from our in-house database of 359,224 compounds. The analogues AV34-AV38 were purchased from Chemical Diversity (San Diego, Calif.) and screened for their αvβ3 binding affinity. […] Studies are also underway to selectively deliver cytotoxic agents such as paclitaxel to αvβ3 overexpressing cancers through covalent conjugation.
Receptor binding affinity of NVX-188 was determined through a competitive binding experiment using ^125I-radiolabeled echistatin on NCI-H1975 cells. Increasing concentrations of NVX-188 were added with a fixed amount of echistatin to determine the concentration of NVX-188 that prevents 50% of the echistatin from binding to αvβ3 integrin on the cell surface (i.e., IC50).

[4] = Cytotoxicity MTT assay, MDA-MB-435; assay type: cell-based, human; conditions: human, MDA-MB-435 breast cancer cells; MDA-MB-435, Table 5
Excerpt: as §1, §2, §3, §4

[5] = Cytotoxicity MTT assay, MCF7; assay type: cell-based, human; conditions: human, MCF-7 breast cancer cells; MCF-7, Table 5
Excerpt: as §1, §2, §3, §4

[6] = Cytotoxicity MTT assay, HEY; assay type: cell-based, human; conditions: human, HEY ovarian carcinoma cells; HEY, Table 5
Excerpt: as §1, §2, §3, §4

[7] = Cytotoxicity MTT assay, NIH3T3; assay type: cell-based, mouse; conditions: mouse, NIH3T3 fibroblasts; NIH3T3, Table 5
Method: as §2, §3, §4

[8] = Cytotoxicity MTT assay, NCI-H1975; assay type: cell-based, human; conditions: human, NCI-H1975 non-small cell lung cancer cells; NCI-H1975, Table 5
Excerpt: as §1, §2, §3, §4

Row | Structure (SMILES) | inhibition at 20 µM [1] | inhibition at 20 µM [2] | inhibition at 20 µM [3] | IC50 (αvβ3 integrin) | IC50 at 72 h [4] | IC50 at 72 h [5] | IC50 at 72 h [6] | IC50 at 72 h [7] | IC50 at 72 h [8]
1 | O=C(CCCCn1cnc2c(S)ncnc21)Nc1ccc(C(=O)O)cc1 [AV1] | 0% | 0% | 14% |  |  |  |  |  | 
2 | O=C(CCCCn1cnc2c(S)ncnc21)Nc1ccc(C(=O)O)c(O)c1 [AV2] | 1% | 1% | 0% |  |  |  |  |  | 
3 | Nc1nc(O)c2nc(CCCNc3ccc(C(=O)NC(CCC(=O)O)C(=O)O)cc3)cnc2n1 (stereo not drawn) [AV3] | 0% | 0% | 0% | 0.052 µM | > 20 µM | > 20 µM | > 20 µM | > 20 µM | > 20 µM
4 | CN(Cc1cnc2nc(N)nc(N)c2n1)c1ccc(C(=O)NC(CCCCN)C(=O)O)cc1 (stereo not drawn) [AV4] | 16% | 30% | 0% |  |  |  |  |  | 
5 | CC(=O)Nc1nc(O)c2nc(CCN(C)c3ccc(C(=O)O)cc3)cnc2n1 [AV5] | 49% | 0% | 0% |  |  |  |  |  | 
6 | Nc1nc(O)c2nc3c(nc2n1)C(=O)N(c1ccc(C(=O)NC(CCC(=O)O)C(=O)O)cc1)C3 (stereo not drawn) [AV6] | 12% | 19% | 0% |  |  |  |  |  | 
7 | Nc1nc(O)c2cc(CSc3ccc(C(=O)NC(CCC(=O)O)C(=O)O)cc3)ccc2n1 (stereo not drawn) [AV7] | 5% | 22% | 0% |  |  |  |  |  | 
8 | Nc1nc(O)c2cc(COc3ccc(C(=O)NC(CCC(=O)O)C(=O)O)cc3)ccc2n1 (stereo not drawn) [AV8] | 12% | 24% | 6% |  |  |  |  |  | 
9 | Nc1ccc(C(=O)Nc2nc3ccc(C(=O)O)cc3s2)cc1 [AV9] | 19% | 36% | 0% |  |  |  |  |  | 
10 | O=C(O)c1ccc(-c2ccc(/C=N/Nc3nc(Nc4ccccc4)nc(Nc4ccccc4)n3)o2)cc1 [AV10] | 93% | 62% | 73% |  | 18 ± 9 µM | > 20 µM | 21 ± 3 µM |  | 
11 | COc1cc(/C=N/Nc2nc(Nc3ccc(F)cc3)nc(N3CCCCC3)n2)ccc1OCC(=O)O [AV11] | 53% | 49% | 0% |  |  |  |  |  | 
12 | CCOc1cc(/C=N/Nc2nc(Nc3ccccc3)nc(N3CCCCC3)n2)ccc1OCC(=O)O [AV14] | 70% | 3% | 0% |  |  |  |  |  | 
13 | CC1=C(C#N)c2nc(N)c(C#N)c(C)c2/C1=C/c1ccc(-c2ccc(Cl)c(C(=O)O)c2)o1 [AV15] | 33% | 14% | 14% |  |  |  |  |  | 
14 | Cc1ccnc(NS(=O)(=O)c2ccc(NC(=O)c3ccc(C(=O)O)cc3C(=O)O)cc2)n1 [AV18] | 18% | 11% | 0% |  |  |  |  |  | 
15 | CC1=NN(c2ccc(C(=O)O)cc2)C(=O)/C1=C/c1ccc(-c2ccc(S(N)(=O)=O)cc2)o1 [AV19] | 30% | 66% | 6% |  | > 20 µM | 19 ± 4 µM | > 20 µM |  | 
16 | Cc1nnc(N/N=C/c2ccc(OCC(=O)O)cc2)nc1O [AV20] | 11% | 27% | 0% |  |  |  |  |  | 
17 | COc1cc(/C=C2\NC(=O)N(CC(=O)Nc3ccc(C)cc3)C2=O)ccc1OCc1cccc(C(=O)O)c1 [AV21] | 26% | 43% | 0% |  |  |  |  |  | 
18 | CCn1cc(C(=O)O)c(=O)c2cc(F)c(N3CCN(S(=O)(=O)c4ccc(NC(C)=O)cc4)CC3)cc21 [AV22] | 25% | 7% | 0% |  |  |  |  |  | 
19 | O=C(CSc1nnnn1-c1ccc(O)cc1)NCc1cccc(C(=O)O)c1 [AV23] | 9% | 34% | 0% |  |  |  |  |  | 
20 | CN(C1=NC(=O)/C(=C\c2ccc(OCC(=O)O)cc2)S1)c1ccc(O)cc1 [AV24] | 9% | 21% | 19% |  |  |  |  |  | 
21 | COc1cc(/C=C2/SC(N(C)c3ccc(O)cc3)=NC2=O)ccc1OCC(=O)O [AV25] | 26% | 29% | 12% |  |  |  |  |  | 
22 | Cc1ccc(NC(=O)CN2C(=O)N/C(=C\c3cccn3-c3cccc(C(=O)O)c3)C2=O)cc1 [AV27] | 0% | 0% | 5% | 0.018 µM | > 20 µM | > 20 µM | > 20 µM | > 20 µM | > 20 µM
23 | CCC(=O)Nc1ccc(C(=O)Nc2ccc(OCC(=O)O)cc2)cc1 [AV28] | 32% | 32% | 34% |  |  |  |  |  | 
24 | O=C(O)COc1ccc(/C=N/NC(=O)c2ccc(O)cc2)cc1OCC(=O)O [AV29] | 14% | 21% | 9% |  |  |  |  |  | 
25 | CCC(=O)Nc1nc(C)c(-c2csc(Nc3cccc(C(=O)O)c3)n2)s1 [AV31] | 21% | 44% | 62% |  |  |  |  |  | 
26 | COc1cc(OC)c(/C=C2\S/C(=N/c3ccc(C(=O)O)cc3)N(C)C2=O)cc1Br [AV36] | 16% | 29% | 4% |  |  |  |  |  | 
27 | COc1cc(/C=C2\S/C(=N/c3cccc(C(=O)O)c3)N(C)C2=O)cc(Cl)c1O [AV37] | 3% | 9% | 0% |  |  |  |  |  | 
